Experimental data from PubChem BioAssay (NCI).
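Five concentrations, 48 hours, 96-well plates. TGI: concentration producing complete growth inhibition.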

Key:
Assay in all cases: inhibition of tumour cell growth, NCI panel, 48 h
MDA-MB-231 breast = system: MDA-MB-231 breast
OVCAR-3 ovarian = system: OVCAR-3 ovarian
CCRF-CEM leukemia = system: CCRF-CEM leukemia
OVCAR-4 ovarian = system: OVCAR-4 ovarian
TK-10 renal = system: TK-10 renal
SW-620 colon = system: SW-620 colon
BT-549 breast = system: BT-549 breast
NCI-H23 lung = system: NCI-H23 lung
NCI-H226 lung = system: NCI-H226 lung
NCI-H522 lung = system: NCI-H522 lung
HCT-15 colon = system: HCT-15 colon
T-47D breast = system: T-47D breast
PC-3 prostate = system: PC-3 prostate
CAKI-1 renal = system: CAKI-1 renal
SF-268 CNS = system: SF-268 CNS
U251 CNS = system: U251 CNS
MCF7 breast = system: MCF7 breast
SK-OV-3 ovarian = system: SK-OV-3 ovarian
COLO 205 colon = system: COLO 205 colon
786-0 renal = system: 786-0 renal
MDA-MB-435 = system: MDA-MB-435
HS 578T breast = system: HS 578T breast
ACHN renal = system: ACHN renal
SR leukemia = system: SR leukemia
MALME-3M melanoma = system: MALME-3M melanoma
A549 NSCLC = system: A549 NSCLC
HCC-2998 colon = system: HCC-2998 colon
UO-31 renal = system: UO-31 renal
HCT-116 colon = system: HCT-116 colon
OVCAR-8 ovarian = system: OVCAR-8 ovarian
RXF 393 renal = system: RXF 393 renal
HT29 colon = system: HT29 colon
KM12 colon = system: KM12 colon
K-562 leukemia = system: K-562 leukemia
SF-295 CNS = system: SF-295 CNS
IGROV1 ovarian = system: IGROV1 ovarian
NCI/ADR-RES ovarian = system: NCI/ADR-RES ovarian
EKVX NSCLC = system: EKVX NSCLC
HOP-62 NSCLC = system: HOP-62 NSCLC
SNB-19 CNS = system: SNB-19 CNS
SK-MEL-2 melanoma = system: SK-MEL-2 melanoma
OVCAR-5 ovarian = system: OVCAR-5 ovarian
M14 melanoma = system: M14 melanoma
UACC-257 melanoma = system: UACC-257 melanoma
SK-MEL-28 melanoma = system: SK-MEL-28 melanoma
DU-145 prostate = system: DU-145 prostate
RPMI-8226 leukemia = system: RPMI-8226 leukemia
UACC-62 melanoma = system: UACC-62 melanoma
MDA-N = system: MDA-N
MOLT-4 leukemia = system: MOLT-4 leukemia
SK-MEL-5 melanoma = system: SK-MEL-5 melanoma
HOP-92 NSCLC = system: HOP-92 NSCLC
SF-539 CNS = system: SF-539 CNS
LOX IMVI melanoma = system: LOX IMVI melanoma
A498 renal = system: A498 renal
HL-60(TB) leukemia = system: HL-60(TB) leukemia
SN12C renal = system: SN12C renal
SNB-75 CNS = system: SNB-75 CNS

Measured: TGI

CCOC(=O)NCC(=O)NCC(=O)NCC(N)=O
not listed: HOP-92 NSCLC | SF-539 CNS | LOX IMVI melanoma | A498 renal | HL-60(TB) leukemia | SN12C renal | SNB-75 CNS
> 100 µM: all other assays above

CC1=NN(C(=O)CC(=O)Nc2cccc(C)c2)C(=O)C1N=Nc1ccc(C(=O)O)cc1 (stereo unspecified)
not listed: NCI-H226 lung | SK-OV-3 ovarian | MOLT-4 leukemia
> 100 µM: all other assays above
